Consider two compounds from patent EP0115714A1, “Pharmaceutical composition with psychotropic dopaminergic action” (priority 1983, dated 1984).

For assay [1] the following is noted: H.W. Stewart et al., J. Org. Chem. 1953, 18, 1478; cited from earlier work.
A further assay concerns activité antifilariale. The note with it: H.W. Stewart et al., J. Org. Chem. 1953, 18, 1478; cited from earlier work.
Assay [2] relates to toxicité de groupe due à l'amphétamine. Kind of assay: Antagonism of amphetamine group toxicity (predictive of antipsychotic activity). The assay is classed as in vivo, souris Charles River CD1. Particulars: Mus musculus, ip; mice, compound i.p. 30 min before amphetamine 30 mg/kg i.p.; mortality over 24 h; confidence limits 10,1 - 26,7; read-out: DE50 (limites de confiance) d'antagonisme de la mortalité due à l'amphétamine. The source says:
L'activité antipsychotique d'un composé représentatif, le monomaléate de 2-(1-pipérazinyl)pyrimidine, a été déterminée dans le test de l'antagonisme de la toxicité de groupe due à l'amphétamine (J.H. Burn et al., Arch. Int. Pharmacodyn. Ther. 1958, 113, 290).
Le moncmaléate de 2-(1-pipérazinyl)pyrimidine a été administré à des doses croissantes par voie intrapéritonéale à des lots de 10 souris Charles River CD1 pesant 20-22 g et groupées dans des cages de 22 cm de long, 12 cm de large et 12 cm de haute. Trente minutes après l'administration, on a injecté par voie intrapéritonéale de l'amphétamine à la dose de 30 mg/kg. La mortalité des animaux a été évaluée durant les 24 h qui ont suivi l'injection d'amphétamine et comparée, dans chaque groupe, à celle du groupe d'animaux témoins n'ayant reçu que le véhicule (sérum physiologique).
Le tableau I ci-dessous montre la dose efficace médiane (DE50) d'antagonisme de la mortalité due à l'amphétamine.

Assay [3] has as its system catalepsie provoquée par la prochlorpérazine. Nature of the assay: Antagonism of the onset of prochlorperazine-induced catalepsy (cork test; predictive of antidepressant activity). The assay is classed as in vivo, rats mâles Wistar. The note with it: rats, prochlorperazine 10 mg/kg s.c. 1 h later, read 5 h after. The source says: L'activité antidépressive des composés de l'invention a été évaluée dans le test de l'antagonisme vis-à-vis de l'installation de la catalepsie provoquée par la prochlorrérazine (K. Bizière et al., Arzneimittel Forschung, 1982, 32 (II), 824).
Un composé représentatif de l'invention, à savoir le monomaléate de 2-(1-pipérazinyl)pyrimidine, a été administré par voie intrapéritonéale à des groupes de 10 rats mâles Wistar pesant 220-240 g; des animaux de contrôle ont été en même temps traités par du sérum physiologique. Une heure après, les animaux ont reçu, par voie sous-cutanée, de la prochlorpérazine à une dose de […]. Cinq heures après cette administration, le nombre d'animaux cataleptiques a été estimé par le test du bouchon. Ce test consiste à positionner les animaux de telle sorte qu'ils puissent maintenir pendant au moins 20 seconds leurs pattes en appui sur une colonne formée de trois bouchons de liège superposés (hauteur totale 11 cm). Les performances réalisées pour chaque groupe d'animaux ont été comparées à celles du croupe d'animaux témoins n'ayant reçu que le véhicule et la prochlorpérazine.
Le tableau II ci-dessous montre le pourcentage d'antagonisme de l'installation de la catalepsie provoquée par la prochlorpérazine.

In the case of `c1cnc(N2CCNCC2)nc1` [2-(l-pipérazinyl)pyrimidine], the “activité analgésique” value in assay [1] was “aucun n'a montré d'activité”. In addition, the activité antifilariale entry in the assay with activité antifilariale was “aucun n'a montré d'activité”.
With `c1cnc(N2CCNCC2)nc1` [2-(1-pipérazinyl)pyrimidine monomaléate, monomaléatede 2-(1-pipérazinyl)pyrimidine], the ED50 in assay [2] is 16.5 mg/kg. Besides, the “% d'antagonisme de l'installation de la catalepsie provoquée par la prochlorpérazine” value is listed as 20% in assay [3] (dose 0,1 mg/kg i.p.) and 80% in assay [3] (dose 1 mg/kg i.p.).
